Drawing on patent publication US5034391A, “Piperazinylalkyl-3(2H)-pyridazinones and the use thereof as agents lowering blood pressure” (CL Pharma Aktiengesellschaft, priority 1988, dated 1991), this text covers Ki for 27 compounds.

One test has as its target T1, 5-HT-1A receptors (Rattus norvegicus, UniProt P19327).
T1 construct: 5-HT-1A receptors in rat brain membranes; from tissue; host or cells: rat brain membranes
T1 sequence (P19327 1-422): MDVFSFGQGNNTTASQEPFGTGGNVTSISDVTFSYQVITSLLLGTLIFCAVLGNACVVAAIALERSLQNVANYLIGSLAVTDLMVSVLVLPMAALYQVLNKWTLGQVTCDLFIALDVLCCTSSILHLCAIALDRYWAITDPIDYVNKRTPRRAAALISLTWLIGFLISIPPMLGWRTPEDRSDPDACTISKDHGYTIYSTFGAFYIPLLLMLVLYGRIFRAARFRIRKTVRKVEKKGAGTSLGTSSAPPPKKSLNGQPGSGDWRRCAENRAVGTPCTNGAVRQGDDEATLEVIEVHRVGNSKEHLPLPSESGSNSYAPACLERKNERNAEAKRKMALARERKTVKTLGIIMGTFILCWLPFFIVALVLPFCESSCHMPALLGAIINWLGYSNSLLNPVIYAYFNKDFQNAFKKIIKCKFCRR
The experiment in a line: Affinity for 5-HT-1A receptors: displacement of tritiated 8-OH-DPAT on rat brain membranes. It is filed as binding. The conditions noted are these: Ki from IC50 by Cheng and Prusoff, read-out: Inhibition constants at 5-HT1A-receptor (Ki). As for the experimental part: The affinity of compounds of the general formula I for 5-HT-1A receptors was determined by the method described by H. Gozlan, S. Elmestikawy, L. Pichat, J. Glowinski and M. Hamon in Nature 305, 140-142 (1983). In this method the competitive displacement of tritiated 8-OH-DPAT (8-hydroxy-(di-n-propylamino)tetralin) on rat brain membranes by the test substances is measured, and the IC50 (50% inhibition concentration) is determined as that concentration which brings about a 50% inhibition of the specific binding of tritiated 8-OH-DPAT to 5-HT-1A receptors in rat brain membranes.
The concentration-independent inhibitor constants K1 -alpha1 and K1 -5HT-1A were determined from the IC50 values as stated by Y. Cheng and H. W. Prusoff in Biochem. Pharmacol. 22, 3099-3108 (1973).

For the next test, the target named is T2, alpha1 adrenoceptors (Rattus norvegicus, UniProt P15823).
T2 construct: from tissue; host or cells: rat cardiac membranes
T2 sequence (P15823 1-515): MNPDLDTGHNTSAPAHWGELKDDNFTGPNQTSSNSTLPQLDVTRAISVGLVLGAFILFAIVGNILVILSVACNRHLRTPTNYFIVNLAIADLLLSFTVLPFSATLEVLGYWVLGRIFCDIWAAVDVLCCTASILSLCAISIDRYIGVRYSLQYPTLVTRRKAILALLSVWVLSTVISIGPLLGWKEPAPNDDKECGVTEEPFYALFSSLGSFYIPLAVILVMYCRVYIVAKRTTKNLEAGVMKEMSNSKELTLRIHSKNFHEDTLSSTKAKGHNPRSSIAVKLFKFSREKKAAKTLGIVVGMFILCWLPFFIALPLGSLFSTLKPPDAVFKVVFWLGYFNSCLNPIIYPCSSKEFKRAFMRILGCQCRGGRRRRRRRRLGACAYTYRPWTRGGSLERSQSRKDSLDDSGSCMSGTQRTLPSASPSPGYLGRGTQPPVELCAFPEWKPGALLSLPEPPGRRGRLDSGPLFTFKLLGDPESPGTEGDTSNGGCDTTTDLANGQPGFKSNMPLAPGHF
The experiment in a line: Affinity for alpha1 adrenoceptors: displacement of tritiated prazosin on rat cardiac membranes. To be noted: Ki from IC50 by Cheng and Prusoff, read-out: Inhibition constants at alpha-1-adrenoceptor (Ki). Format: binding. As for the experimental part: The affinity of compounds of the general formula I for alpha1 adrenoceptors was established using the method described by R. S. Williams, D. F. Dukes and […] in J. Cardiovasc. Pharmacol. 3, 522-531 (1981). In this method the competitive displacement of tritiated prazosin (2-(4-(2-furoyl)-1-piperazinyl)-4-amino-6,7-dimethoxy-quinazoline) on rat-cardiac membranes by the test substances is measured, and the IC50 (50% inhibition concentration) is determined as that concentration which brings about a 50% inhibition of the specific binding of tritiated prazosin to the alpha1 adrenoceptors in rat cardiac membranes.
The concentration-independent inhibitor constants K1 -alpha1 were determined from the IC50 values as stated by Y. Cheng and H. W.Prusoff in Biochem. Pharmacol. 22, 3099-3108 (1973).

One may read the Ki as a dissociation constant, usually derived from enzyme kinetics or from competition with a known ligand. Turning to `CCN(CCN1CCN(c2ccccc2OC)CC1)c1ccnn(C)c1=O` [2-Methyl-4-(ethyl-(2-(4-(2-methoxyphenyl)piperazinyl-1)ethyl)amino)-3(2H)-pyridazinone], the values for the inhibition constant Ki at 5-HT-1A receptors and at alpha1 adrenoceptors were 40.7 nM and 68 nM, respectively.

For `COc1ccccc1N1CCN(CCNc2cn[nH]c(=O)c2Cl)CC1` [4-Chloro-5-((2-(4-(2-methoxyphenyl)-1-piperazinyl)ethyl)amino)-3(2H)-pyridazinone], the Ki worked out at 27 nM at 5-HT-1A receptors and 5.43 nM at alpha1 adrenoceptors.

With `COc1cc(C)ccc1N1CCN(CCNc2c(Cl)cnn(C)c2=O)CC1` [2-Methyl-5-chloro-4-((2-(4-(2-methoxy-4-methylphenyl)piperazinyl-1)ethyl)amino)-3(2H)-pyridazinone], the Ki at 5-HT-1A receptors amounted to 126 nM; at alpha1 adrenoceptors, 22.4 nM.

With `COc1ccccc1N1CCN(CCNc2cc(Cl)nn(C)c2=O)CC1` [2-Methyl-6-chloro-4-((2-(4-(2-methoxyphenyl)piperazinyl-1)ethyl)amino)-3(2H)-pyridazinone], the Ki is 28.4 nM on 5-HT-1A receptors and 5.63 nM on alpha1 adrenoceptors.

Regarding `Cn1ncc(Cl)c(NCCN2CCN(c3cccc(C(F)(F)F)c3)CC2)c1=O` [2-Methyl-5-chloro-4-((2-(4-(3-trifluoromethylphenyl)piperazinyl-1)ethyl)amino-3(2H)-pyridazinone], the inhibition constant (Ki) on 5-HT-1A receptors is 8.31 nM; on alpha1 adrenoceptors it was 47.3 nM.

As to `COc1ccccc1N1CCN(CCNc2cnn(-c3ccccc3)c(=O)c2Cl)CC1` [2-Phenyl-4-chloro-5-((2-(4-(2-methoxyphenyl)piperazinyl-1)ethyl)amino)-3(2H)-pyridazinone], the results for the Ki on 5-HT-1A receptors and at alpha1 adrenoceptors were 75.8 nM and 4.48 nM, respectively.

In the case of `COc1ccc(C)cc1N1CCN(CCNc2cnn(C)c(=O)c2)CC1` [2-Methyl-5-((2-(4-(2-methoxy-5-methylphenyl)piperazinyl-1)ethyl)amino)-3(2H)-pyridazinone], the Ki at 5-HT-1A receptors worked out at 523 nM; on alpha1 adrenoceptors, 82.6 nM.

With `Cn1ncc(NCCN2CCN(c3ccccc3)CC2)cc1=O` [2-Methyl-5-((2-(4-phenylpiperazinyl-1)ethyl)amino)-3(2H)-pyridazinone], the inhibition constant (Ki) at 5-HT-1A receptors is 274 nM; on alpha1 adrenoceptors, 157 nM.

In the case of `COc1ccccc1N1CCN(CCNc2cnn(C)c(=O)c2Br)CC1` [2-methyl-4-bromo-5-((2-(4-(2-methoxyphenyl)-1-piperazinyl)ethyl)amino)-3(2H)-pyridazinone], the Ki was 33.6 nM at 5-HT-1A receptors and 5.88 nM at alpha1 adrenoceptors.

For `Cn1nccc(NCCN2CCN(c3ccccc3)CC2)c1=O` [2-Methyl-4-((2-(4-phenylpiperazinyl-1)ethyl)amino)-3(2H) pyridazinone], the inhibition constant Ki came out at 261 nM at 5-HT-1A receptors and 90.3 nM on alpha1 adrenoceptors.

With `COc1ccccc1N1CCN(CCNc2ccnn(CCO)c2=O)CC1` [2-Hydroxyethyl-4-((2-(4-(2-methoxyphenyl)piperazinyl-1)ethyl)amino)-3(2H)-pyridazinone], the results for the inhibitory constant (Ki) at 5-HT-1A receptors and on alpha1 adrenoceptors were 18.2 nM and 17.7 nM, respectively.

In the case of `COc1ccccc1N1CCN(CCNc2cnn(C)c(=O)c2Cl)CC1` [2-methyl-4-chloro-5-((2-(4-(2-methoxyphenyl)-1-piperazinyl)ethyl)amino)-3(2H)-pyridazinone], the figures for the inhibition constant Ki on 5-HT-1A receptors and on alpha1 adrenoceptors were 63.2 nM and 7.57 nM, respectively.

In the case of `Cn1ncc(NCCN2CCN(c3ccccc3)CC2)c(Cl)c1=O` [2-Methyl-4-chloro-5-((2-(4-phenylpiperazinyl-1)ethyl)amino)-3(2H)-pyridazinone], the inhibition constant (Ki) amounted to 106 nM on 5-HT-1A receptors and 4.05 nM on alpha1 adrenoceptors.

Take `COc1cc(C)ccc1N1CCN(CCNc2cnn(C)c(=O)c2Cl)CC1` [2-Methyl-4-chloro-5-((2-(4-(2-methoxy-4-methylphenyl)piperazinyl-1)ethyl)amino)-3(2H)-pyridazinone]: the Ki at 5-HT-1A receptors worked out at 478 nM; at alpha1 adrenoceptors, 31.4 nM.

`Cn1nccc(NCCN2CCN(c3cccc(C(F)(F)F)c3)CC2)c1=O` [2-Methyl-4-((2-(4-(3-trifluoromethylphenyl)piperazinyl-1)ethyl)amino-3(2H)-pyridazinone]: the inhibition constant (Ki) at 5-HT-1A receptors came to 4.56 nM; at alpha1 adrenoceptors it was 175 nM.

As to `CCN(CCN1CCN(c2ccccc2OC)CC1)c1cnn(C)c(=O)c1` [2-Methyl-5-(ethyl-(2-(4-(2-methoxyphenyl)piperazinyl-1)ethyl)amino)-3(2H)-pyridazinone], the inhibitory constant (Ki) is 24.2 nM on 5-HT-1A receptors and 20.6 nM at alpha1 adrenoceptors.

Turning to `COc1ccc(C)cc1N1CCN(CCNc2ccnn(C)c2=O)CC1` [2-Methyl-4-((2-(4-(2-methoxy-5-methylphenyl)piperazinyl-1)ethyl)amino)-3(2H)-pyridazinone], the inhibition constant (Ki) at 5-HT-1A receptors was determined as 186 nM; on alpha1 adrenoceptors it was 73.6 nM.

On to `COc1cc(C)ccc1N1CCN(CCNc2cnn(C)c(=O)c2)CC1` [2-Methyl-5-((2-(4-(2-methoxy-4-methylphenyl)piperazinyl-1)ethyl)amino)-3(2H)-pyridazinone], for which the Ki at 5-HT-1A receptors is 814 nM; on alpha1 adrenoceptors, 207 nM.

For the compound `COc1ccccc1N1CCN(CCNc2cnn(C(C)(C)C)c(=O)c2)CC1` [2-t-Butyl-5-((2-(4-(2-methoxyphenyl)piperazinyl-1)ethyl)amino)-3(2H)-pyridazinone], the inhibitory constant (Ki) at 5-HT-1A receptors is 65.8 nM; at alpha1 adrenoceptors it was 6.03 nM.

Regarding `COc1cc(C)ccc1N1CCN(CCNc2ccnn(C)c2=O)CC1` [2-Methyl-4-((2-(4-(2-methoxy-4-methylphenyl)piperazinyl-1)ethyl)amino)-3(2H)-pyridazinone], the figures for the inhibition constant Ki on 5-HT-1A receptors and on alpha1 adrenoceptors were 272 nM and 171 nM, respectively.

For the compound `Cn1ncc(Cl)c(NCCN2CCN(c3ccccc3F)CC2)c1=O` [2-Methyl-5-chloro-4-((2-(4-(2-fluorophenyl)piperazinyl-1)ethyl)amino-3(2H)-pyridazinone], the results for the Ki at 5-HT-1A receptors and at alpha1 adrenoceptors were 80.8 nM and 2.51 nM, respectively.

As for `COc1ccccc1N1CCN(CCNc2cnn(CCN(C)C)c(=O)c2Cl)CC1` [2-(Dimethylaminoethyl)-4-chloro-5-((2-(4-(2-methoxyphenyl)piperazinyl-1)ethyl)amino)-3(2H)-pyridazinone], the Ki on 5-HT-1A receptors is 118 nM; at alpha1 adrenoceptors it was 17.3 nM.

Take `COc1ccccc1N1CCN(CCNc2c(Br)cnn(C)c2=O)CC1` [2-Methyl-5-bromo-4-((2-(4-(2-methoxyphenyl)-1-piperazinyl)ethyl)amino)-3(2H)-pyridazinone]: the Ki on 5-HT-1A receptors turned out to be 16.2 nM; on alpha1 adrenoceptors, 1.33 nM.

Take `COc1ccccc1N1CCN(CCCNc2cc(=O)n(C)c(=O)n2C)CC1` [URAPIDIL, reference compound]: the Ki on 5-HT-1A receptors was 93.1 nM; at alpha1 adrenoceptors it was 110 nM.

In the case of `COc1ccccc1N1CCN(CCCNc2c(Cl)cnn(C)c2=O)CC1` [2-methyl-5-chloro-4-((3-(4-(2-methoxyphenyl)-1-piperazinyl)propyl)amino)-3(2H)-pyridazinone], the Ki on 5-HT-1A receptors was found to be 1.4 nM; at alpha1 adrenoceptors, 3.48 nM.

On to `COc1ccccc1N1CCN(CCNc2c(Cl)cnn(C(C)(C)C)c2=O)CC1` [2-t-Butyl-5-chloro-4-((2-(4-(2-methoxyphenyl)piperazinyl-1)ethyl)amino)-3(2H)-pyridazinone], for which the Ki at 5-HT-1A receptors came to 9.45 nM; on alpha1 adrenoceptors, 42.2 nM.

On to `COc1ccccc1N1CCN(CCNc2cnn(CCO)c(=O)c2)CC1` [2-Hydroxyethyl-5-((2-(4-(2-methoxyphenyl)piperazinyl-1)ethyl)amino)-3(2H)-pyridazinone], for which the inhibition constant (Ki) was 55.8 nM at 5-HT-1A receptors and 128 nM on alpha1 adrenoceptors.
